Experimental data from ChEMBL document CHEMBL1201862, “PubChem BioAssay data set” (2004).
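Values below derive from 48-hour exposures of cells grown in 96-well plates, with endpoints linearly interpolated between the two concentrations bracketing the appropriate inhibition level. The concentration for 50% growth inhibition is given as GI50.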 Active and inactive are the calls of the source. Cut-off read from the data, not from the text of the source: active = GI50 up to about 1.1 µM and inactive = higher.

Columns and labels:
Assay in all cases: NCI anticancer screen, dose series, 48 h
[1] = test system: DU-145
[2] = test system: MDA-N
[3] = test system: SW-620
[4] = test system: SNB-19
[5] = test system: SF-295
[6] = test system: A498
[7] = test system: MDA-MB-435
[8] = test system: SK-MEL-2
[9] = test system: HOP-62
[10] = test system: SNB-75
[11] = test system: NCI-H522
[12] = test system: MCF7
[13] = test system: CAKI-1
[14] = test system: PC-3
[15] = test system: HL-60
[16] = test system: Malme-3M
[17] = test system: BT-549
[18] = test system: HT-29
[19] = test system: RPMI-8226
[20] = test system: SK-MEL-5
[21] = test system: Hs-578T
[22] = test system: T47D
[23] = test system: ACHN
[24] = test system: SN12C
[25] = test system: SK-OV-3
[26] = test system: CCRF-CEM
[27] = test system: SF-539
[28] = test system: HCT-15
[29] = test system: SF-268
[30] = test system: OVCAR-5
[31] = test system: OVCAR-4
[32] = test system: NCI-H226
[33] = test system: M14
[34] = test system: NCI-H23
[35] = test system: OVCAR-3
[36] = test system: UACC-62
[37] = test system: SK-MEL-28
[38] = test system: COLO 205
[39] = test system: KM12
[40] = test system: EKVX
[41] = test system: HOP-92
[42] = test system: UACC-257
[43] = test system: NCI/ADR-RES
[44] = test system: HCT-116
[45] = test system: A549
[46] = test system: LOX IMVI
[47] = test system: OVCAR-8
[48] = test system: U-251
[49] = test system: K562
[50] = test system: RXF 393
[51] = test system: SR
[52] = test system: IGROV-1
[53] = test system: NCI-H460
[54] = test system: MOLT-4
[55] = test system: 786-0
[56] = test system: TK-10
[57] = test system: UO-31
[58] = test system: MDA-MB-231
[59] = test system: HCC 2998
[60] = test system: LXFL 529
[61] = test system: M19-MEL
[62] = test system: KM-20L2
[63] = test system: SNB-78
[64] = test system: DLD-1
[65] = test system: XF498

## Nc1cccc2nsnc12
[1]
  GI50: > 100 µM (inactive)
[2]
  GI50: 49.8 µM (inactive)
[3]
  GI50: > 100 µM (inactive)
[4]
  GI50: > 100 µM (inactive)
[5]
  GI50: > 88.7 µM (inactive)
[6]
  GI50: > 100 µM (inactive)
[7]
  GI50: 31.6 µM (inactive)
[8]
  GI50: > 100 µM (inactive)
[9]
  GI50: > 100 µM (inactive)
[10]
  GI50: 53.8 µM (inactive)
[11]
  GI50: 9.1 µM (inactive)
[12]
  GI50: > 88.3 µM (inactive)
[13]
  GI50: 74.3 µM (inactive)
[14]
  GI50: > 100 µM (inactive)
[15]
  GI50: 3.31 µM (inactive)
[16]
  GI50: > 100 µM (inactive)
[17]
  GI50: > 100 µM (inactive)
[18]
  GI50: > 100 µM (inactive)
[19]
  GI50: 17.8 µM (inactive)
[20]
  GI50: 36.3 µM (inactive)
[21]
  GI50: > 100 µM (inactive)
[22]
  GI50: 49.1 µM (inactive)
[23]
  GI50: > 95.7 µM (inactive)
[24]
  GI50: > 100 µM (inactive)
[25]
  GI50: > 100 µM (inactive)
[26]
  GI50: 11.9 µM (inactive)
[27]
  GI50: > 100 µM (inactive)
[28]
  GI50: > 76.7 µM
[29]
  GI50: > 86.3 µM (inactive)
[30]
  GI50: > 100 µM (inactive)
[31]
  GI50: > 100 µM (inactive)
[32]
  GI50: > 100 µM (inactive)
[33]
  GI50: > 83.9 µM (inactive)
[34]
  GI50: > 100 µM (inactive)
[35]
  GI50: > 94.8 µM (inactive)
[36]
  GI50: 48.6 µM (inactive)
[37]
  GI50: > 100 µM (inactive)
[38]
  GI50: 29.3 µM (inactive)
[39]
  GI50: 20.7 µM (inactive)
[40]
  GI50: > 91.8 µM (inactive)
[41]
  GI50: > 100 µM (inactive)
[42]
  GI50: > 100 µM (inactive)
[43]
  GI50: > 100 µM (inactive)
[44]
  GI50: > 100 µM (inactive)
[45]
  GI50: > 100 µM (inactive)
[46]
  GI50: > 53.1 µM (inactive)
[47]
  GI50: > 100 µM (inactive)
[48]
  GI50: > 100 µM (inactive)
[49]
  GI50: 16.7 µM (inactive)
[50]
  GI50: > 100 µM (inactive)
[51]
  GI50: 4.2 µM (inactive)
[52]
  GI50: > 100 µM (inactive)
[53]
  GI50: > 84.1 µM (inactive)
[54]
  GI50: 12.9 µM (inactive)
[55]
  GI50: > 100 µM (inactive)
[56]
  GI50: > 100 µM (inactive)
[57]
  GI50: > 40.5 µM (inactive)
[58]
  GI50: > 100 µM (inactive)
[59]
  GI50: > 84.3 µM (inactive)

## Oc1cc(CN2CCOCCOCCOCCOCC2)c(O)cc1CN1CCOCCOCCOCCOCC1
[60]
  GI50: 21.1 µM (inactive)
[61]
  GI50: 14.1 µM (inactive)
[3]
  GI50: 24.4 µM (inactive)
[4]
  GI50: > 100 µM (inactive)
[5]
  GI50: > 100 µM (inactive)
[6]
  GI50: > 75.3 µM (inactive)
[8]
  GI50: > 50.7 µM (inactive)
[9]
  GI50: > 100 µM (inactive)
[10]
  GI50: > 78.7 µM (inactive)
[11]
  GI50: 11.8 µM (inactive)
[13]
  GI50: 18.1 µM (inactive)
[15]
  GI50: 23.8 µM (inactive)
[16]
  GI50: > 10 µM (inactive)
[18]
  GI50: > 47.2 µM (inactive)
[19]
  GI50: 26.2 µM (inactive)
[20]
  GI50: > 61.2 µM (inactive)
[23]
  GI50: 23.9 µM (inactive)
[24]
  GI50: > 10 µM (inactive)
[25]
  GI50: > 100 µM (inactive)
[26]
  GI50: 18.6 µM (inactive)
[27]
  GI50: > 100 µM (inactive)
[28]
  GI50: 34.9 µM
[29]
  GI50: > 56.5 µM (inactive)
[30]
  GI50: 22.8 µM (inactive)
[31]
  GI50: 18.4 µM (inactive)
[32]
  GI50: > 61.5 µM (inactive)
[33]
  GI50: 18.3 µM (inactive)
[62]
  GI50: > 50.6 µM (inactive)
[34]
  GI50: > 78.5 µM (inactive)
[35]
  GI50: 61.8 µM (inactive)
[36]
  GI50: 29.2 µM (inactive)
[37]
  GI50: 24 µM (inactive)
[38]
  GI50: 21.2 µM (inactive)
[39]
  GI50: > 100 µM (inactive)
[40]
  GI50: > 100 µM (inactive)
[41]
  GI50: 21.2 µM (inactive)
[42]
  GI50: > 100 µM (inactive)
[44]
  GI50: 22.9 µM (inactive)
[45]
  GI50: > 100 µM (inactive)
[46]
  GI50: 24.5 µM (inactive)
[47]
  GI50: 40.5 µM (inactive)
[48]
  GI50: > 41.5 µM (inactive)
[63]
  GI50: > 57.1 µM (inactive)
[49]
  GI50: 24.4 µM (inactive)
[50]
  GI50: 23.8 µM (inactive)
[51]
  GI50: 20.3 µM (inactive)
[64]
  GI50: 22.1 µM (inactive)
[65]
  GI50: 22 µM (inactive)
[52]
  GI50: > 78 µM (inactive)
[53]
  GI50: > 100 µM (inactive)
[54]
  GI50: 24.3 µM (inactive)
[55]
  GI50: 27.2 µM (inactive)
[56]
  GI50: > 56.2 µM (inactive)
[57]
  GI50: > 71.3 µM (inactive)
[59]
  GI50: > 100 µM (inactive)
